{
  "source": "ChEMBL document CHEMBL1933040",
  "about": "“The novel agent ophiobolin O induces apoptosis and cell cycle arrest of MCF-7 cells through activation of MAPK signaling pathways” (Bioorg Med Chem Lett, 2012)",
  "key": {"[1]": {"test_system": "MCF7", "test": "Induction of apoptosis in human MCF7 cells assessed as increase in Bim expression level at 17.86 uM after 12 to 48 hrs by Western blot analysis", "assay_type": "functional, cell-based"}, "[2]": {"test_system": "MCF7", "test": "Effect on total JNK protein level in human MCF7 cells at 17.86 uM after 12 to 48 hrs by Western blot analysis", "assay_type": "functional, cell-based"}, "[3]": {"test_system": "MCF7", "test": "Induction of apoptosis in human MCF7 cells assessed as change in Bax/Bcl2 ratio at 17.86 uM by Western blot analysis", "assay_type": "functional, cell-based", "settings": "TDE = time-dependent effect"}, "[4]": {"biological_target": "T1, Mitogen-activated protein kinase; ERK1/ERK2 (Homo sapiens) (UniProt P27361+P28482)", "T1 sequence (P27361 whole entry, looked up)": "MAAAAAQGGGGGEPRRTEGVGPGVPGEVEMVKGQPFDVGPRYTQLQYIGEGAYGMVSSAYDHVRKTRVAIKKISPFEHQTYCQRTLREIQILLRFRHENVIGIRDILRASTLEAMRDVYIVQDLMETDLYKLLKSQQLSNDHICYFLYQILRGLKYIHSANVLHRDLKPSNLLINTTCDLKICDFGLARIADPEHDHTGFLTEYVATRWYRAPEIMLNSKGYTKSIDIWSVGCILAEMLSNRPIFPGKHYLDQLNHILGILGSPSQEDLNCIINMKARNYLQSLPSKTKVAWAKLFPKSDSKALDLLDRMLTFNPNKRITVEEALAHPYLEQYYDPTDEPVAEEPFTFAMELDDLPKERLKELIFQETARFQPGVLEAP", "T1 sequence (P28482 whole entry, looked up)": "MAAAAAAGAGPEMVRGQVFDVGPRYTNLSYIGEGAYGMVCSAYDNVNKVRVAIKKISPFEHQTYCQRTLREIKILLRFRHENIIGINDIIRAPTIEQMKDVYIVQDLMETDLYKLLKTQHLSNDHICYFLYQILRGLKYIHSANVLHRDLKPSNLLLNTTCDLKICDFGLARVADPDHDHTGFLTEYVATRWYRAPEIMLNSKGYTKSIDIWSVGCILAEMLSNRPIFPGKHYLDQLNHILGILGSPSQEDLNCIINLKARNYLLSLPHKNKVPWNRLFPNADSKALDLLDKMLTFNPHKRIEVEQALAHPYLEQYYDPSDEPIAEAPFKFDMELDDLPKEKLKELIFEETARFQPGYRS", "test": "Activation of ERK1/2 phosphorylation in human MCF7 cells at 17.86 uM after 48 hrs by Western blot analysis in presence of ERK inhibitor U0126", "assay_type": "cell-based"}, "[5]": {"test_system": "MCF7", "test": "Cell cycle arrest in human MCF7 cells assessed as accumulation at G0/G1 phase at 17.86 uM by flow cytometry", "assay_type": "functional, cell-based", "settings": "TDE = time-dependent effect"}, "[6]": {"test_system": "HUVEC", "test": "Cytotoxicity against human HUVEC cells after 48 hrs by MTT assay", "assay_type": "cell-based"}, "[7]": {"biological_target": "T2, MAP kinase p38 (Homo sapiens) (UniProt O15264+Q15759+Q16539+P53778)", "test": "Activation of MAPK p38 phosphorylation in human MCF7 cells at 17.86 uM after 12 hrs by Western blot analysis", "assay_type": "cell-based"}, "[8]": {"test_system": "MCF7", "test": "Cytotoxicity against human MCF7 cells after 48 hrs by MTT assay", "assay_type": "functional, cell-based"}, "[9]": {"test_system": "MCF7", "test": "Induction of apoptosis in human MCF7 cells assessed as change in Bax expression level at 17.86 uM after 12 to 48 hrs by Western blot analysis", "assay_type": "functional, cell-based"}, "[10]": {"test_system": "MCF7", "test": "Induction of apoptosis in human MCF7 cells at 17.86 uM after 48 hrs by using Annexin V-FITC and propidium iodide staining by flow cytometry in presence of JNK inhibitor SP600125", "assay_type": "functional, cell-based"}, "[11]": {"biological_target": "T2, MAP kinase p38 (Homo sapiens)", "test": "Activation of MAPK p38 phosphorylation in human MCF7 cells at 17.86 uM after 36 to 48 hrs by Western blot analysis", "assay_type": "cell-based"}, "[12]": {"test": "Activation of JNK phosphorylation in human MCF7 cells at 17.86 uM after 24 hrs by Western blot analysis", "assay_type": "cell-based"}, "[13]": {"test_system": "MCF7", "test": "Effect on total ERK 1/2 protein level in human MCF7 cells at 17.86 uM after 12 to 48 hrs by Western blot analysis", "assay_type": "functional, cell-based"}, "[14]": {"test_system": "MCF7", "test": "Cell cycle arrest in human MCF7 cells assessed as accumulation at G0/G1 phase at 17.86 uM after 48 hrs by flow cytometry (reference value: 39.34 +/- 3.37%)", "assay_type": "functional"}, "[15]": {"test_system": "MCF7", "test": "Induction of apoptosis in human MCF7 cells at 17.86 uM after 48 hrs using Annexin V-FITC and propidium iodide staining by flow cytometry (reference value: 3.71 +/- 0.63%)", "assay_type": "functional"}, "[16]": {"test_system": "MCF7", "test": "Induction of apoptosis in human MCF7 cells at 17.86 uM using Annexin V-FITC and propidium iodide staining by flow cytometry", "assay_type": "functional, cell-based", "settings": "TDE = time-dependent effect"}, "[17]": {"test_system": "MCF7", "test": "Cell cycle arrest in human MCF7 cells assessed as accumulation at G0/G1 phase at 17.86 uM after 12 hrs by flow cytometry (reference value: 39.34 +/- 3.37%)", "assay_type": "functional"}, "[18]": {"test_system": "MCF7", "test": "Cell cycle arrest in human MCF7 cells assessed as accumulation at G0/G1 phase at 17.86 uM after 24 hrs by flow cytometry (reference value: 39.34 +/- 3.37%)", "assay_type": "functional"}, "[19]": {"biological_target": "T1, Mitogen-activated protein kinase; ERK1/ERK2 (Homo sapiens)", "test": "Activation of ERK1/2 phosphorylation in human MCF7 cells at 17.86 uM after 24 hrs by Western blot analysis relative to control", "assay_type": "cell-based"}, "[20]": {"test_system": "MCF7", "test": "Induction of apoptosis in human MCF7 cells assessed as increase of Bcl-2 phosphorylation at Ser70 at 17.86 uM after 12 hrs by Western blot analysis in presence of JNK inhibitor SP600125", "assay_type": "functional, cell-based"}, "[21]": {"test_system": "MCF7", "test": "Induction of apoptosis in human MCF7 cells assessed as decrease in Bcl2 expression level at 17.86 uM after 12 to 48 hrs by Western blot analysis", "assay_type": "functional, cell-based"}, "[22]": {"test_system": "MCF7", "test": "Induction of apoptosis in human MCF7 cells assessed as change in Bcl-2 protein level at 17.86 uM after 12 hrs by Western blot analysis in presence of JNK inhibitor SP600125", "assay_type": "functional, cell-based"}, "[23]": {"test_system": "MCF7", "test": "Effect on total MAPK p38 protein level in human MCF7 cells at 17.86 uM after 12 to 48 hrs by Western blot analysis", "assay_type": "functional, cell-based"}, "[24]": {"biological_target": "T2, MAP kinase p38 (Homo sapiens)", "test": "Activation of MAPK p38 phosphorylation in human MCF7 cells at 17.86 uM after 48 hrs by Western blot analysis in presence of p38 inhibitor SB203580", "assay_type": "cell-based"}},
  "note": "Calls of active or inactive are those of the source. The rule behind the calls is not given here.",
  "data": [
    {"smiles": "CO[C@H]1O[C@@]2(OC)C[C@@](C)(O)[C@H]3C[C@@]4(C)CC[C@H]([C@@H](C)/C=C\\C=C(C)C)[C@@H]4C/C=C/1[C@H]32", "note": "[OPHIOBOLIN O]", "values": [
      {"measurement": "Activity", "setting": "[1]", "result": "Active"},
      {"measurement": "Activity", "setting": "[2]", "result": "Active"},
      {"measurement": "Activity", "setting": "[3]", "result": "tde"},
      {"measurement": "Activity", "setting": "[4]", "result": "inactive"},
      {"measurement": "Activity", "setting": "[5]", "result": "tde"},
      {"measurement": "Activity", "setting": "[6]", "result": "Non-toxic"},
      {"measurement": "Activity", "setting": "[7]", "result": "Active"},
      {"measurement": "Activity", "setting": "[8]", "result": "Dose-dependent effect"},
      {"measurement": "IC50", "setting": "[8]; MCF7, 48 h", "result": 17.9, "unit": "µM"},
      {"measurement": "Activity", "setting": "[9]", "result": "inactive"},
      {"measurement": "Activity", "setting": "[10]", "result": "inactive"},
      {"measurement": "Activity", "setting": "[11]", "result": "Active"},
      {"measurement": "Activity", "setting": "[12]", "result": "Active"},
      {"measurement": "Activity", "setting": "[13]", "result": "Active"},
      {"measurement": "Activity", "setting": "[14]", "result": 78.54, "unit": "%"},
      {"measurement": "Activity", "setting": "[15]", "result": 47.18, "unit": "%"},
      {"measurement": "Activity", "setting": "[16]", "result": "tde"},
      {"measurement": "Activity", "setting": "[17]", "result": 44.79, "unit": "%"},
      {"measurement": "Activity", "setting": "[18]", "result": 60.1, "unit": "%"},
      {"measurement": "Activity", "setting": "[19]", "result": "Active"},
      {"measurement": "Activity", "setting": "[20]", "result": "Active"},
      {"measurement": "Activity", "setting": "[21]", "result": "Active"},
      {"measurement": "Activity", "setting": "[22]", "result": "Active"},
      {"measurement": "Activity", "setting": "[23]", "result": "Active"},
      {"measurement": "Activity", "setting": "[24]", "result": "inactive"}
    ]}
  ]
}
